Measured values reported in patent US20130190237A1, “METHODS FOR CATEGORISING CANCER SUCH AS BREAST CANCER” (IMPERIAL INNOVATIONS LIMITED, priority 2010, published 2013).
Residues, ends and D or L forms follow the SMILES beside them. *: point of attachment. Cbz = O=C(OCc1ccccc1)*

What was measured:
[1] = tested on: ERα protein in MCF7 cells; assay: Western blotting of ERα protein levels; assay type: cell-based, human; conditions: for ERα protein levels under LMTK3 silencing with co-treatment: MCF7, LMTK3 siRNA plus compound
Method: (A) MCF7 cells (1×10^6) were plated in 10 cm^2 plates in phenol red-free DMEM containing 10% DSS. The following day, cells were transfected with 20 nM CT siRNA or LMTK3 siRNA for 72 h and then treated or not (ET-OH) with E2 (10 nM) for 24 h. Cells were harvested, lysed and equal protein amounts were subjected to Western Blotting analysis using the indicated antibodies. β-actin was used as a control for sample loading. (B) Quantitative analysis of ERα and LMTK3 protein levels is given as fold of control. […] (C) MCF7 cells (5×10^4) were plated in 24-well plates and transfected with 20 nM CT siRNA or LMTK3 siRNA for 48 h. Gene expression of ERα was measured by qRT-PCR.
(§1) Whole cell lysates were prepared using NP40 lysis buffer (50 mM Tris-HCl, pH 8.0, 150 mM NaCl, 10% (v/v) glycerol, 1% NP40, 5 mM dithiothreitol (DTT), 1 mM EDTA, 1 mM EGTA, 50 μM leupeptin and 30 μg/ml aprotinin). These extracts were then clarified by centrifugation at 15000 rpm for 15 min at 4° C. for western blotting. The bicinchoninic acid (BCA) protein assay (Pierce) was used to determine the protein concentration of the lysates. […] The membranes were then blocked in TBS containing 0.1% (v/v) Tween20 and 5% (w/v) non-fat milk for 1 h and subsequently probed overnight with different antibodies following extensive washing with TBS/Tween and incubation with HRP-conjugated goat anti-rabbit IgG or goat anti-mouse IgG (1:1000 dilution) for 45 mins. Enhanced chemiluminescence (ECL) detection then allowed detection of the immunocomplexes. The intensity of the bands were quantified using Image J software (NIH, Bethesda, Md.).
as §1, with “45 min.” for “45 mins.”, “the immuno-complexes.” for “the immunocomplexes.”, “bands was” for “bands were”

LMTK3 kinase domain = target: T1, LMTK3 kinase domain (Homo sapiens, UniProt Q96Q04); assay: LMTK3 inhibitor screening assay (CisBio KinEASE STK S1 kit, ratiometric fluorescent read-out); assay type: biochemical; conditions: for Average % Inhibition / Average pIC50: 10 nM LMTK3, 1 μM S1 peptide, ATP 10 μM; for Average pIC50: 120 mins at 37° C., N=5
T1 construct: GST (N); made in house; host or cells: insect cells
T1 sequence (Q96Q04 133-415): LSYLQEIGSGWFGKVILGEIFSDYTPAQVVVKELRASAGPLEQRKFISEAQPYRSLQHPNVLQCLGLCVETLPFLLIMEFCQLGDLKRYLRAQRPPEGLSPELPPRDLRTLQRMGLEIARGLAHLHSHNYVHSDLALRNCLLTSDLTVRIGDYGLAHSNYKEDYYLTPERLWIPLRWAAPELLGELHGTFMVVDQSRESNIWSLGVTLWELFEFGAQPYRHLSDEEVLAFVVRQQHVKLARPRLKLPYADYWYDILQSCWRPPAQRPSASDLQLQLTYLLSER
Method: This exemplary assay has been developed to find inhibitors of LMTK3. The LMTK3 kinase domain (amino acids 133-415 of the full length kinase sequence, with an N-terminal GST tag) was expressed in insect cells and isolated via the GST N-terminal epitope.
Kinase reactions are set up in the presence of 1% DMSO with ATP added at around KM (=10 μM). Kinase activity is monitored using the CisBio KinEASE STK S1 kit using a ratiometric fluorescent read-out at 665 and 620 nm. The assay uses 10 nM LMTK3, 1 μM S1 peptide, 10 mM MgCl2 in the manufacturer buffer with extension of reaction time to 120 mins at 37° C.
Screening was performed in 384 low volume black microtitre plates with a final volume of 20 μl. The reaction was stopped with the addition of EDTA and detection reagents and fluorescence read on Pherastar. Data was normalised to the high control as specified by no inhibition and the low controls, equating to no activity (absence of ATP). Inhibitor activity was determined using concentration response curves, and using a four parameter fit to identify pIC50 values. Assay robustness was calculated using Z prime.

LMTK3 gene expression = LMTK3 gene expression after E2 or tamoxifen; assay type: cell-based
Method: Total RNA was isolated using the RNeasy kit (Qiagen). Reverse transcription was performed using high capacity cDNA reverse transcription kit (Applied Biosystems). RT-qPCR analysis was performed on a 7900HT Thermocycler (Applied Biosystems) using TaqMan mastermix and primers for TFF1, PGR, GREB1, FOXO3, FOXM1, LMTK1, LMTK2, LMTK3, MCL1 and GAPDH cDNAs, purchased from Applied Biosystems.

[2] = tested on: Tamoxifen resistant cell lines (LCC9, MLET5, BT-474); assay: WST-1 cell proliferation assay in tamoxifen resistant cell lines; assay type: cell-based; conditions: 20 nM siRNA, Tamoxifen 100 nM
Method: Tamoxifen resistant cell lines (LCC9, MLET5, BT-474) were transfected with 20 nM of control siRNA or LMTK3 siRNA in the presence or absence of Tamoxifen (100 nM). Cells were subjected to the WST-1 cell proliferation assay, on the day of transfection (day 0) and then consecutive 48 h intervals. Absorbance was measured at 460 nm. Results represent the mean of three experiments per cell line ±SE.
FIG. 28 Effects of LMTK3 silencing in tamoxifen-resistant cell lines. (a) BT-474, (b) MLET5 and, (c) LCC9 cells were transfected with LMTK3 siRNA in the presence or absence of tamoxifen (100 nM). Comparisons are shown amongst: i) siControl-transfected and tamoxifen treated cells (*), ii) siControl- and siLMTK3-transfected cells ($) and iii) tamoxifen treated and siLMTK3-transfected cells (p<0.05—Student's t test). Western blotting of AIB1 and p-ERα S118 protein expression levels are shown.
The colorimetric Rapid Cell Proliferation kit (Calbiochem, UK) was used. The assay is based on the incubation of cells with the tatrazolium salt WST-1, which is cleaved by mitochondrial dehydrogenases, functional only in viable cells. […] The following day, cells were incubated with the WST-1 for 30 min at 37° C., according to manufacturer's instructions, and the absorbance read with the microplate reader at 460 nm was considered to be Day 0. […] Readings were repeated consecutively in 48 h intervals. […]

## C[C@]12CC[C@@H]3c4ccc(O)cc4CC[C@H]3[C@@H]1CC[C@@H]2O [E2, Estradiol]
[1]; MCF7, E2 10 nM 24 h or 20 nM siRNA 72 h
  decrease of ERα protein levels: ~40%

## CN(C)CCCn1cc(C2=C(c3c[nH]c4ccccc34)C(=O)NC2=O)c2ccccc21 [GF109203X]
LMTK3 kinase domain
  Average % Inhibition: 107.89%
  Average pIC50: 9.88

## COc1ccc2c(c1)c(C1=C(c3c[nH]c4ccccc34)C(=O)NC1=O)cn2CCCN(C)C [Go 6983]
[1]
  ERα protein levels under LMTK3 silencing with co-treatment: partly rescues the LMTK3 siRNA-induced down-regulation of ERα

## COC(=O)[C@@]1(O)C[C@H]2O[C@]1(C)n1c3ccccc3c3c4c(c5c6ccccc6n2c5c31)C(=O)NC4 [K-252a]
LMTK3 kinase domain
  IC50: 79.4 nM
  Average % Inhibition: 98.91%

## CCCCCCOC(=O)[C@]1(O)C[C@@H]2O[C@@]1(C)n1c3ccccc3c3c4c(c5c6ccccc6n2c5c31)C(=O)NC4 [KT5720]
LMTK3 kinase domain
  Average % Inhibition: 98.65%
  Average pIC50: 9.93

## CC(C)C[C@@H](C=O)NC(=O)[C@H](CC(C)C)NC(=O)[C@H](CC(C)C)NC(=O)OCc1ccccc1 [MG132] (Cbz-Leu-Leu-Leu-aldehyde)
[1]
  ERα protein levels under LMTK3 silencing with co-treatment: partly rescued ERα degradation

## CCCCCCCCCCCCCC(=O)O[C@@H]1[C@@H](C)[C@@]2(O)[C@@H](C=C(CO)C[C@]3(O)C(=O)C(C)=C[C@@H]23)[C@@H]2C(C)(C)[C@]12OC(C)=O [PMA]
[1]
  ERα protein levels under LMTK3 silencing with co-treatment: further degrades ERα

## CN[C@@H]1C[C@H]2O[C@@](C)([C@@H]1OC)n1c3ccccc3c3c4c(c5c6ccccc6n2c5c31)C(=O)NC4 [Staurosporine]
LMTK3 kinase domain
  IC50: 0.0024 nM
  Average % Inhibition: 108.86%

## CC/C(=C(\c1ccccc1)c1ccc(OCCN(C)C)cc1)c1ccccc1 [Tamoxifen]
[1]; MCF7, Tam 100 nM 24 h
  increase of ERα protein levels: ~50%
LMTK3 gene expression
  LMTK3 expression: up-regulated
[2]
  effect on growth of tamoxifen-resistant cell lines: slightly affected basal cell growth
